From PubChem BioAssay (NCI)
Several values for one entry are separate records, joined by “and”; a condition that tells them apart may be missing. Equal values may be shown once.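 Briefly, cells in 96-well plates were exposed to five compound concentrations for 48 h, and endpoints were estimated by linear interpolation. Abbreviation: GI50, concentration required for 50% inhibition of growth. TGI marks complete inhibition of growth.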

Assays:
Experiment in all cases: growth of human tumour cells (NCI), 48 h
BT-549 breast = test system: BT-549 breast
HOP-62 NSCLC = test system: HOP-62 NSCLC
HOP-92 NSCLC = test system: HOP-92 NSCLC
MALME-3M melanoma = test system: MALME-3M melanoma
MOLT-4 leukemia = test system: MOLT-4 leukemia
PC-3 prostate = test system: PC-3 prostate
SF-539 CNS = test system: SF-539 CNS
SK-MEL-5 melanoma = test system: SK-MEL-5 melanoma
T-47D breast = test system: T-47D breast
TK-10 renal = test system: TK-10 renal

| SMILES | TGI (BT-549 breast) [µM] | TGI (HOP-62 NSCLC) [µM] | TGI (HOP-92 NSCLC) [µM] | TGI (MALME-3M melanoma) [µM] | TGI (MOLT-4 leukemia) [µM] | TGI (PC-3 prostate) [µM] | TGI (SF-539 CNS) [µM] | TGI (SK-MEL-5 melanoma) | TGI (T-47D breast) [µM] | TGI (TK-10 renal) | GI50 (PC-3 prostate) [µM] |
| --- | --- | --- | --- | --- | --- | --- | --- | --- | --- | --- | --- |
| CC1(C)CCC2(C(=O)OC3OC(CO)C(O)C(O)C3O)CCC3(C)C(=CCC4C5(C)CCC(OC6OC(CO)C(O)C(O)C6O)C(C)(C)C5CCC43C)C2C1 (centres undefined) | > 25 | > 25 | > 25 | > 25 | 13.7 | > 25 | 12.8 | > 25 µM | 24.3 | > 25 µM |  |
| N[C@H]1CCN(c2c(F)cc3c(=O)c(C(=O)O)cn4c3c2Oc2cc3c(ccc5ccccc53)cc2-4)C1 | > 100 | > 100 | 6.29 | > 100 | > 100 | 6.34 | 10.6 | 4.3 µM |  | > 100 µM |  |
| COc1ccc(N=c2ssc(C(=S)Nc3ccc(OC)cc3)c2S)cc1 | > 100 | > 100 | > 100 | > 100 | > 100 | > 100 | > 100 | > 100 µM | > 100 | > 100 µM |  |
| Nc1ccc2c(c1)C(=O)N(O)C2=O |  | > 100 |  | > 100 | > 100 |  | > 100 |  |  | > 100 µM |  |
| CC1=C2C(=O)OCC23C=COC3(C)O1 (centres undefined) | > 100 | > 100 | > 100 | 74.5 | > 100 | > 100 | 65.9 | 35.6 µM | > 100 | > 100 µM |  |
| N#CC(c1ccccc1)N1CCCN(C(C#N)c2ccccc2)C1c1ccccc1O (centres undefined) | > 100 | > 100 | > 100 | > 100 | > 100 | > 100 | > 100 | > 100 µM | > 100 | > 100 µM |  |
| CCOC(=O)/C(=C\NCC(OCC)OCC)c1nc2ccccc2[nH]1 | 62.4 | > 100 | > 100 | 61.5 | 41.3 | 63.7 | > 100 | 28.5 µM | 94.5 | > 100 µM |  |
| CN(C)CCn1c(=O)c2ccc3c4c(nn3CCN(C)C)c3cc(N)ccc3n(c1=O)c24 | 0.78 | 0.201 |  | 0.257 | > 100 | 0.114 | 0.579 | 0.237 µM | 0.849 | 3.8 µM |  |
| COc1ccc(/C=C(\C#N)c2nc(N)nc(N3N=C(C)CC3(C)C)n2)c(O)c1 | > 100 | 43.6 | 58.5 | 31.7 | 34.1 | > 100 | 29.1 | 28.5 µM | 34.5 | 77.7 µM |  |
| O=CN1CCN(C(=O)c2cc(Cl)cc(Cl)c2)C1=S | 31.3 | 29.7 | 31.9 | 20.7 | 42.7 | 35.8 | 39.7 |  | 36.7 | 28.7 µM |  |
| CC(=O)OC1CC(O)CC2=CCC3C4CCC(C(C)(O)C(O)CC5COC(=O)C5C)C4(C)CCC3C21C (centres undefined) | > 25 | > 25 | > 25 |  | > 25 | > 25 | > 25 | > 25 µM | > 25 | > 25 µM |  |
| O=S1(=O)OC(c2ccc(O)cc2)(c2ccc(O)cc2)c2ccccc21 | > 100 | > 100 | > 100 | > 100 | > 100 | > 100 | > 100 | > 100 µM | > 100 | > 100 µM |  |
| [O-][N+](CCO)(CCO)c1ncnc2nc[nH]c12 | > 100 | > 100 |  | > 100 | > 100 | > 100 |  | > 100 µM | > 100 | > 100 µM |  |
| O=[n+]1c2c(n([O-])c3ccccc31)-c1cccc3cccc-2c13 |  |  | > 100 |  | > 100 | > 100 |  | > 100 µM | > 100 | > 100 µM |  |
| CC[C@@]1(O)C(=O)OCc2c1cc1n(c2=O)Cc2c-1nc1ccc(O)cc1c2CC[Si](C)(C)C | 4.09 | 0.0106 | 0.0308 | 1.41 | 0.00221 | > 100 |  | 0.123 µM and 0.0438 µM |  | 0.693 µM and 0.749 µM | 0.0525 |
| COc1ccc(N=C2C(=O)C3=C(OC(C)(C)CC3)c3ccccc32)cc1 | 2.58 | 1.89 | 22.2 | 1.59 | 5.29 | 5.49 | 0.806 | 1.53 µM | 2.2 | 7.93 µM |  |
| CCOC(=O)C1CCn2c(nc3c2c(=O)n(C)c(=O)n3C)S1 (centres undefined) |  | > 100 |  | > 100 | > 100 |  | > 100 | > 100 µM |  | > 100 µM |  |
| Nc1nc(N)c2c(n1)NC(c1ccccc1)CC(/C=C/c1ccc(Cl)cc1)=N2 (centres undefined) | 37.9 | 34 | 18.2 | 32.7 | 12.6 | 22 | 31.2 | 23.4 µM | 30.8 | 8.64 µM |  |
| Cc1cc(O)c(C(C)C)cc1CN1CCCCC1 | > 100 | > 100 | > 100 | > 100 | > 100 | > 100 | > 100 | > 100 µM | > 100 | > 100 µM |  |
| COC(=O)C1C(O)CCC2CN3CCc4c([nH]c5cccc(OC)c45)C3CC21 (centres undefined) | > 100 | > 100 | > 100 | > 100 | > 100 | > 100 | > 100 |  | > 100 | > 100 µM |  |
